Assays:
Assay in all cases: relative viability (nuclei count vs DMSO), 5 days (fraction); higher = more cells survive
NCI-H661 = tested on: NCI-H661
Procedure, shortened: (§1)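 Lung cancer cell lines were pin-tool dosed in 1536-well plates on the day after seeding, with either a lone drug or a fixed anchor-drug dose plus five library-drug doses (not always all listed) in √10 steps. Nuclei were counted on 4× images after 5 days. Relative viability is the ratio of treated-well to vehicle-well nuclei counts, with each value a median of duplicate plates.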

NCI-H520 = tested on: NCI-H520
Procedure, shortened: as §1

PC-3 [JPC-3] = tested on: PC-3 [JPC-3]
Procedure, shortened: as §1

RERF-LC-KJ = tested on: RERF-LC-KJ
Procedure, shortened: as §1

NCI-H1355 = tested on: NCI-H1355
Procedure, shortened: as §1

NCI-H1563 = tested on: NCI-H1563
Procedure, shortened: as §1

SW 1573 = tested on: SW 1573
Procedure, shortened: as §1

HCC-827 = tested on: HCC-827
Procedure, shortened: as §1

NCI-H2405 = tested on: NCI-H2405
Procedure, shortened: as §1

NCI-H2228 = tested on: NCI-H2228
Procedure, shortened: as §1

NCI-H1651 = tested on: NCI-H1651
Procedure, shortened: as §1

ABC-1 = tested on: ABC-1
Procedure, shortened: as §1

PC-14 = tested on: PC-14
Procedure, shortened: as §1

HCC-15 = tested on: HCC-15
Procedure, shortened: as §1

H3255 = tested on: H3255
Procedure, shortened: as §1

COR-L23 = tested on: COR-L23
Procedure, shortened: as §1

NCI-H1650 = tested on: NCI-H1650
Procedure, shortened: as §1

EKVX = tested on: EKVX
Procedure, shortened: as §1

NCI-H322M = tested on: NCI-H322M
Procedure, shortened: as §1

NCI-H1734 = tested on: NCI-H1734
Procedure, shortened: as §1

CAL-12T = tested on: CAL-12T
Procedure, shortened: as §1

NCI-H1437 = tested on: NCI-H1437
Procedure, shortened: as §1

Clc1ccc(Nc2nnc(Cc3ccncc3)c3ccccc23)cc1 [Vatalanib] + CC(C)C[C@H](NC(=O)[C@H](Cc1ccccc1)NC(=O)c1cnccn1)B(O)O [Bortezomib] (partner 0.002 µM)
relative viability (NCI-H661; first compound 0.04 µM): 0.801 | relative viability (NCI-H661; first compound 0.1265 µM): 0.71 | relative viability (NCI-H661; first compound 0.4 µM): 0.882 | relative viability (NCI-H661; first compound 1.265 µM): 0.764 | relative viability (NCI-H661; first compound 4 µM): 0.816 | relative viability (NCI-H520; first compound 0.04 µM): 0.841 | relative viability (NCI-H520; first compound 0.1265 µM): 0.573 | relative viability (NCI-H520; first compound 0.4 µM): 0.677 | relative viability (NCI-H520; first compound 1.265 µM): 0.547 | relative viability (NCI-H520; first compound 4 µM): 0.702 | relative viability (PC-3 [JPC-3]; first compound 0.04 µM): 0.785 | relative viability (PC-3 [JPC-3]; first compound 0.1265 µM): 0.828 | relative viability (PC-3 [JPC-3]; first compound 0.4 µM): 0.82 | relative viability (PC-3 [JPC-3]; first compound 1.265 µM): 0.856 | relative viability (PC-3 [JPC-3]; first compound 4 µM): 0.721 | relative viability (RERF-LC-KJ; first compound 0.04 µM): 1.05 | relative viability (RERF-LC-KJ; first compound 0.1265 µM): 1.1 | relative viability (RERF-LC-KJ; first compound 0.4 µM): 0.958 | relative viability (RERF-LC-KJ; first compound 1.265 µM): 0.904 | relative viability (RERF-LC-KJ; first compound 4 µM): 0.969 | relative viability (NCI-H1355; first compound 0.04 µM): 1.18 | relative viability (NCI-H1355; first compound 0.1265 µM): 1.22 | relative viability (NCI-H1355; first compound 0.4 µM): 1.21 | relative viability (NCI-H1355; first compound 1.265 µM): 1.09 | relative viability (NCI-H1355; first compound 4 µM): 1.1 | relative viability (NCI-H1563; first compound 0.04 µM): 0.868 | relative viability (NCI-H1563; first compound 0.1265 µM): 0.855 | relative viability (NCI-H1563; first compound 0.4 µM): 1.09 | relative viability (NCI-H1563; first compound 1.265 µM): 0.814 | relative viability (NCI-H1563; first compound 4 µM): 0.732 | relative viability (SW 1573; first compound 0.04 µM): 1.15 | relative viability (SW 1573; first compound 0.1265 µM): 0.96 | relative viability (SW 1573; first compound 0.4 µM): 1.21 | relative viability (SW 1573; first compound 1.265 µM): 0.972 | relative viability (SW 1573; first compound 4 µM): 1.09 | relative viability (HCC-827; first compound 0.04 µM): 1.04 | relative viability (HCC-827; first compound 0.1265 µM): 0.877 | relative viability (HCC-827; first compound 0.4 µM): 1.05 | relative viability (HCC-827; first compound 1.265 µM): 1.12 | relative viability (HCC-827; first compound 4 µM): 1.03 | relative viability (NCI-H2405; first compound 0.04 µM): 1 | relative viability (NCI-H2405; first compound 0.1265 µM): 1.03 | relative viability (NCI-H2405; first compound 0.4 µM): 0.76 | relative viability (NCI-H2405; first compound 1.265 µM): 0.957 | relative viability (NCI-H2405; first compound 4 µM): 0.939 | relative viability (NCI-H2228; first compound 0.04 µM): 0.865 | relative viability (NCI-H2228; first compound 0.1265 µM): 0.803 | relative viability (NCI-H2228; first compound 0.4 µM): 0.94 | relative viability (NCI-H2228; first compound 1.265 µM): 0.951 | relative viability (NCI-H2228; first compound 4 µM): 1.11 | relative viability (NCI-H1651; first compound 0.04 µM): 0.906 | relative viability (NCI-H1651; first compound 0.1265 µM): 0.917 | relative viability (NCI-H1651; first compound 0.4 µM): 0.959 | relative viability (NCI-H1651; first compound 1.265 µM): 0.941 | relative viability (NCI-H1651; first compound 4 µM): 0.969 | relative viability (ABC-1; first compound 0.04 µM): 0.334 | relative viability (ABC-1; first compound 0.1265 µM): 0.243 | relative viability (ABC-1; first compound 0.4 µM): 0.348 | relative viability (ABC-1; first compound 1.265 µM): 0.357 | relative viability (ABC-1; first compound 4 µM): 0.351 | relative viability (PC-14; first compound 0.04 µM): 1.02 | relative viability (PC-14; first compound 0.1265 µM): 0.849 | relative viability (PC-14; first compound 0.4 µM): 0.969 | relative viability (PC-14; first compound 1.265 µM): 0.852 | relative viability (PC-14; first compound 4 µM): 0.828 | relative viability (HCC-15; first compound 0.04 µM): 1.15 | relative viability (HCC-15; first compound 0.1265 µM): 1.03 | relative viability (HCC-15; first compound 0.4 µM): 1.03 | relative viability (HCC-15; first compound 1.265 µM): 0.978 | relative viability (HCC-15; first compound 4 µM): 1.04 | relative viability (H3255; first compound 0.04 µM): 0.627 | relative viability (H3255; first compound 0.1265 µM): 0.764 | relative viability (H3255; first compound 0.4 µM): 0.494 | relative viability (H3255; first compound 1.265 µM): 0.47 | relative viability (H3255; first compound 4 µM): 0.713 | relative viability (COR-L23; first compound 0.04 µM): 1.1 | relative viability (COR-L23; first compound 0.1265 µM): 0.934 | relative viability (COR-L23; first compound 0.4 µM): 1.01 | relative viability (COR-L23; first compound 1.265 µM): 1.01 | relative viability (COR-L23; first compound 4 µM): 0.942 | relative viability (NCI-H1650; first compound 0.04 µM): 0.196 | relative viability (NCI-H1650; first compound 0.1265 µM): 0.217 | relative viability (NCI-H1650; first compound 0.4 µM): 0.206 | relative viability (NCI-H1650; first compound 1.265 µM): 0.174 | relative viability (NCI-H1650; first compound 4 µM): 0.195 | relative viability (EKVX; first compound 0.04 µM): 1.1 | relative viability (EKVX; first compound 0.1265 µM): 0.647 | relative viability (EKVX; first compound 0.4 µM): 1.22 | relative viability (EKVX; first compound 1.265 µM): 0.984 | relative viability (EKVX; first compound 4 µM): 0.848 | relative viability (NCI-H322M; first compound 0.04 µM): 1.19 | relative viability (NCI-H322M; first compound 0.1265 µM): 1.31 | relative viability (NCI-H322M; first compound 0.4 µM): 1.33 | relative viability (NCI-H322M; first compound 1.265 µM): 1.28 | relative viability (NCI-H322M; first compound 4 µM): 1.08 | relative viability (NCI-H1734; first compound 0.04 µM): 1.02 | relative viability (NCI-H1734; first compound 0.1265 µM): 1.04 | relative viability (NCI-H1734; first compound 0.4 µM): 1.15 | relative viability (NCI-H1734; first compound 1.265 µM): 0.827 | relative viability (NCI-H1734; first compound 4 µM): 0.893 | relative viability (CAL-12T; first compound 0.04 µM): 0.933 | relative viability (CAL-12T; first compound 0.1265 µM): 0.774 | relative viability (CAL-12T; first compound 1.265 µM): 0.988 | relative viability (CAL-12T; first compound 4 µM): 1.05 | relative viability (NCI-H1437; first compound 0.04 µM): 0.57 | relative viability (NCI-H1437; first compound 0.1265 µM): 0.577 | relative viability (NCI-H1437; first compound 0.4 µM): 0.507 | relative viability (NCI-H1437; first compound 1.265 µM): 0.445 | relative viability (NCI-H1437; first compound 4 µM): 0.495

— the supplement of paper PMC10307832
